Test results published in the supplement of paper PMC10307832.

Experiments:
Assay in all cases: relative viability (nuclei count vs DMSO), 5 days (fraction); higher = more cells survive
[1] = system: LXF-289
Procedure, shortened: (§1)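 Medians of duplicate plates are given as relative viability. That measure is the nuclei count in treated wells divided by the count in vehicle wells. Counts were taken on 4× images of lung cancer cell lines in 1536-well plates, 5 days after pin-tool dosing the day after seeding with one drug alone or a fixed anchor-drug dose plus five library-drug doses (not always all listed) in √10 steps.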

[2] = system: ABC-1
Procedure, shortened: as §1

[3] = system: NCI-H1993
Procedure, shortened: as §1

[4] = system: HOP-62
Procedure, shortened: as §1

[5] = system: NCI-H522
Procedure, shortened: as §1

[6] = system: LK-2
Procedure, shortened: as §1

[7] = system: NCI-H322M
Procedure, shortened: as §1

[8] = system: NCI-H1944
Procedure, shortened: as §1

[9] = system: EMC-BAC-2
Procedure, shortened: as §1

[10] = system: SW 900
Procedure, shortened: as §1

[11] = system: NCI-H2009
Procedure, shortened: as §1

[12] = system: NCI-H2170
Procedure, shortened: as §1

[13] = system: SW 1573
Procedure, shortened: as §1

[14] = system: SK-MES-1
Procedure, shortened: as §1

[15] = system: PC-3 [JPC-3]
Procedure, shortened: as §1

[16] = system: HARA
Procedure, shortened: as §1

[17] = system: A-427
Procedure, shortened: as §1

[18] = system: NCI-H727
Procedure, shortened: as §1

[19] = system: NCI-H3122
Procedure, shortened: as §1

[20] = system: NCI-H596
Procedure, shortened: as §1

[21] = system: NCI-H2228
Procedure, shortened: as §1

CC(=O)O[C@@]12CO[C@@H]1C[C@H](O)[C@@]1(C)C(=O)[C@H](O)C3=C(C)[C@@H](OC(=O)[C@H](O)[C@@H](NC(=O)OC(C)(C)C)c4ccccc4)C[C@@](O)([C@@H](OC(=O)c4ccccc4)[C@H]21)C3(C)C [Docetaxel] + Cc1cc(Nc2cc(N3CCN(C)CC3)nc(Sc3ccc(NC(=O)C4CC4)cc3)n2)n[nH]1 [Tozasertib] (partner 0.1 µM)
relative viability ([1]; first compound 0.0002 µM): 0.172
relative viability ([1]; first compound 0.000632 µM): 0.165
relative viability ([1]; first compound 0.006325 µM): 0.125
relative viability ([1]; first compound 0.02 µM): 0.114
relative viability ([2]; first compound 0.0002 µM): 0.15
relative viability ([2]; first compound 0.000632 µM): 0.191
relative viability ([2]; first compound 0.002 µM): 0.195
relative viability ([2]; first compound 0.006325 µM): 0.159
relative viability ([2]; first compound 0.02 µM): 0.218
relative viability ([3]; first compound 0.0002 µM): 0.644
relative viability ([3]; first compound 0.000632 µM): 0.592
relative viability ([3]; first compound 0.002 µM): 0.604
relative viability ([3]; first compound 0.006325 µM): 0.515
relative viability ([3]; first compound 0.02 µM): 0.586
relative viability ([4]; first compound 0.0002 µM): 0.353
relative viability ([4]; first compound 0.000632 µM): 0.401
relative viability ([4]; first compound 0.002 µM): 0.281
relative viability ([4]; first compound 0.006325 µM): 0.277
relative viability ([5]; first compound 0.0002 µM): 0.559
relative viability ([5]; first compound 0.000632 µM): 0.451
relative viability ([5]; first compound 0.002 µM): 0.527
relative viability ([5]; first compound 0.006325 µM): 0.551
relative viability ([5]; first compound 0.02 µM): 0.585
relative viability ([6]; first compound 0.0002 µM): 0.155
relative viability ([6]; first compound 0.000632 µM): 0.215
relative viability ([6]; first compound 0.002 µM): 0.157
relative viability ([6]; first compound 0.006325 µM): 0.188
relative viability ([6]; first compound 0.02 µM): 0.166
relative viability ([7]; first compound 0.0002 µM): 0.479
relative viability ([7]; first compound 0.000632 µM): 0.477
relative viability ([7]; first compound 0.002 µM): 0.49
relative viability ([7]; first compound 0.006325 µM): 0.485
relative viability ([7]; first compound 0.02 µM): 0.476
relative viability ([8]; first compound 0.0002 µM): 0.23
relative viability ([8]; first compound 0.000632 µM): 0.223
relative viability ([8]; first compound 0.002 µM): 0.235
relative viability ([8]; first compound 0.006325 µM): 0.194
relative viability ([8]; first compound 0.02 µM): 0.15
relative viability ([9]; first compound 0.0002 µM): 0.296
relative viability ([9]; first compound 0.000632 µM): 0.321
relative viability ([9]; first compound 0.006325 µM): 0.26
relative viability ([9]; first compound 0.02 µM): 0.185
relative viability ([10]; first compound 0.0002 µM): 0.453
relative viability ([10]; first compound 0.000632 µM): 0.296
relative viability ([10]; first compound 0.002 µM): 0.259
relative viability ([10]; first compound 0.006325 µM): 0.277
relative viability ([10]; first compound 0.02 µM): 0.173
relative viability ([11]; first compound 0.0002 µM): 0.626
relative viability ([11]; first compound 0.000632 µM): 0.747
relative viability ([11]; first compound 0.002 µM): 0.682
relative viability ([11]; first compound 0.006325 µM): 0.553
relative viability ([11]; first compound 0.02 µM): 0.302
relative viability ([12]; first compound 0.0002 µM): 0.615
relative viability ([12]; first compound 0.000632 µM): 0.581
relative viability ([12]; first compound 0.002 µM): 0.43
relative viability ([12]; first compound 0.006325 µM): 0.222
relative viability ([12]; first compound 0.02 µM): 0.175
relative viability ([13]; first compound 0.0002 µM): 0.24
relative viability ([13]; first compound 0.000632 µM): 0.189
relative viability ([13]; first compound 0.002 µM): 0.256
relative viability ([13]; first compound 0.02 µM): 0.199
relative viability ([14]; first compound 0.0002 µM): 0.974
relative viability ([14]; first compound 0.000632 µM): 0.459
relative viability ([14]; first compound 0.002 µM): 0.252
relative viability ([14]; first compound 0.006325 µM): 0.166
relative viability ([14]; first compound 0.02 µM): 0.134
relative viability ([15]; first compound 0.0002 µM): 0.851
relative viability ([15]; first compound 0.000632 µM): 0.78
relative viability ([15]; first compound 0.002 µM): 0.426
relative viability ([15]; first compound 0.006325 µM): 0.209
relative viability ([15]; first compound 0.02 µM): 0.118
relative viability ([16]; first compound 0.0002 µM): 0.0918
relative viability ([16]; first compound 0.000632 µM): 0.102
relative viability ([16]; first compound 0.002 µM): 0.0951
relative viability ([16]; first compound 0.006325 µM): 0.0945
relative viability ([16]; first compound 0.02 µM): 0.0738
relative viability ([17]; first compound 0.0002 µM): 0.176
relative viability ([17]; first compound 0.000632 µM): 0.237
relative viability ([17]; first compound 0.002 µM): 0.193
relative viability ([17]; first compound 0.006325 µM): 0.162
relative viability ([17]; first compound 0.02 µM): 0.132
relative viability ([18]; first compound 0.0002 µM): 0.781
relative viability ([18]; first compound 0.000632 µM): 0.614
relative viability ([18]; first compound 0.002 µM): 0.611
relative viability ([18]; first compound 0.006325 µM): 0.518
relative viability ([18]; first compound 0.02 µM): 0.398
relative viability ([19]; first compound 0.0002 µM): 0.339
relative viability ([19]; first compound 0.000632 µM): 0.278
relative viability ([19]; first compound 0.002 µM): 0.217
relative viability ([19]; first compound 0.006325 µM): 0.179
relative viability ([19]; first compound 0.02 µM): 0.122
relative viability ([20]; first compound 0.0002 µM): 0.838
relative viability ([20]; first compound 0.000632 µM): 0.754
relative viability ([20]; first compound 0.002 µM): 0.365
relative viability ([20]; first compound 0.006325 µM): 0.361
relative viability ([20]; first compound 0.02 µM): 0.25
relative viability ([21]; first compound 0.0002 µM): 0.242
relative viability ([21]; first compound 0.000632 µM): 0.169
relative viability ([21]; first compound 0.002 µM): 0.127
relative viability ([21]; first compound 0.006325 µM): 0.168
relative viability ([21]; first compound 0.02 µM): 0.121
